Experimental data from ChEMBL document CHEMBL1124001, “Synthesis and antileukemic activity of bis[[(carbamoyl)oxy]methyl]- substituted pyrrolo[2,1-a]isoquinolines, pyrrolo[1,2-a]quinolines, pyrrolo[2,1-a]isobenzazepines, and pyrrolo[1,2-a]benzazepines” (J Med Chem, 1988).

How the values were obtained:
[1] = tested on: Mus musculus; experiment: Net log cell kill was determined after injecting 12.5 mg/kg intraperitoneally in CD2F1 mice; assay type: functional; conditions: route intraperitoneal
[2] = tested on: Mus musculus; experiment: Net log cell kill was determined after injecting 25 mg/kg intraperitoneally in CD2F1 mice; assay type: functional; conditions: route intraperitoneal
[3] = tested on: Mus musculus; experiment: Net log cell kill was determined after injecting 3.16 mg/kg intraperitoneally in CD2F1 mice; assay type: functional; conditions: route intraperitoneal
[4] = tested on: Mus musculus; experiment: Body weight change of test animals to that of control was determined after injection at 6.25 mg/kg intraperitoneally in CD2F1 mice; assay type: functional; conditions: route intraperitoneal
[5] = tested on: Mus musculus; experiment: Net log cell kill was determined after injecting 6.25 mg/kg intraperitoneally in CD2F1 mice; assay type: functional; conditions: route intraperitoneal
[6] = tested on: Mus musculus; experiment: Body weight change of test animals to that of control was determined after injection at 100 mg/kg intraperitoneally in CD2F1 mice; assay type: functional; conditions: route intraperitoneal
[7] = tested on: Mus musculus; experiment: Body weight change of test animals to that of control was determined after injection at 25 mg/kg intraperitoneally in CD2F1 mice; assay type: functional; conditions: route intraperitoneal
[8] = tested on: Mus musculus; experiment: Body weight change of test animals to that of control was determined after injection at 3.16 mg/kg intraperitoneally in CD2F1 mice; assay type: functional; conditions: route intraperitoneal
[9] = tested on: Mus musculus; experiment: Body weight change of test animals to that of control was determined after injection at 50 mg/kg intraperitoneally in CD2F1 mice; assay type: functional; conditions: route intraperitoneal
[10] = tested on: Mus musculus; experiment: Toxicity day survivors was determined by the ratio of animals survived to that of test animals at 100 mg/kg intraperitoneally in CD2F1 mice; 3/6; assay type: organism-based; set-up: dose 100 mg/kg, route intraperitoneal; conditions: in vivo, ip
[11] = tested on: Mus musculus; experiment: Toxicity day survivors was determined by the ratio of animals survived to that of test animals at 12.5 mg/kg intraperitoneally in CD2F1 mice; 6/6; assay type: organism-based; set-up: dose 12.5 mg/kg, route intraperitoneal; conditions: in vivo, ip
[12] = tested on: Mus musculus; experiment: Toxicity day survivors was determined by the ratio of animals survived to that of test animals at 25 mg/kg intraperitoneally in CD2F1 mice; 6/6; assay type: organism-based; set-up: dose 25 mg/kg, route intraperitoneal; conditions: in vivo, ip
[13] = tested on: Mus musculus; experiment: Toxicity day survivors was determined by the ratio of animals survived to that of test animals at 3.16 mg/kg intraperitoneally in CD2F1 mice; 6/6; assay type: organism-based; set-up: dose 3.16 mg/kg, route intraperitoneal; conditions: in vivo, ip
[14] = tested on: Mus musculus; experiment: Toxicity day survivors was determined by the ratio of animals survived to that of test animals at 50 mg/kg intraperitoneally in CD2F1 mice; 6/6; assay type: organism-based; set-up: dose 50 mg/kg, route intraperitoneal; conditions: in vivo, ip
[15] = tested on: Mus musculus; experiment: Toxicity day survivors was determined by the ratio of animals survived to that of test animals at 6.25 mg/kg intraperitoneally in CD2F1 mice; 6/6; assay type: organism-based; set-up: dose 6.25 mg/kg, route intraperitoneal; conditions: in vivo, ip
[16] = tested on: Mus musculus; experiment: Ratio of treated to that of untreated tumor-bearing control animals at 6.25 mg/kg intraperitoneally in CD2F1 mice was determined; assay type: functional; conditions: route intraperitoneal
[17] = tested on: Mus musculus; experiment: Ratio of treated to that of untreated tumor-bearing control animals at 12.5 mg/kg intraperitoneally in CD2F1 mice was determined; assay type: functional; conditions: route intraperitoneal
[18] = tested on: Mus musculus; experiment: Ratio of treated to that of untreated tumor-bearing control animals at 25 mg/kg intraperitoneally in CD2F1 mice was determined; assay type: functional; conditions: route intraperitoneal
[19] = tested on: Mus musculus; experiment: Ratio of treated to that of untreated tumor-bearing control animals at 3.16 mg/kg intraperitoneally in CD2F1 mice was determined; assay type: functional; conditions: route intraperitoneal
[20] = tested on: Mus musculus; experiment: Body weight change of test animals to that of control was determined after injection at 12.5 mg/kg intraperitoneally in CD2F1 mice; assay type: functional; conditions: route intraperitoneal
[21] = tested on: Mus musculus; experiment: Net log cell kill was determined after injecting 10 mg/kg intraperitoneally in CD2F1 mice; assay type: functional; conditions: route intraperitoneal
[22] = tested on: Mus musculus; experiment: Net log cell kill was determined after injecting 2.5 mg/kg intraperitoneally in CD2F1 mice; assay type: functional; conditions: route intraperitoneal
[23] = tested on: Mus musculus; experiment: Net log cell kill was determined after injecting 5 mg/kg intraperitoneally in CD2F1 mice; assay type: functional; conditions: route intraperitoneal
[24] = tested on: Mus musculus; experiment: Body weight change of test animals to that of control was determined after injection at 10 mg/kg intraperitoneally in CD2F1 mice; assay type: functional; conditions: route intraperitoneal
[25] = tested on: Mus musculus; experiment: (§1) Body weight change of test animals to that of control was determined after injection at 2.5 mg/kg intraperitoneally in CD2F1 mice; assay type: functional; conditions: route intraperitoneal
[26] = tested on: Mus musculus; experiment: Body weight change of test animals to that of control was determined after injection at 20 mg/kg intraperitoneally in CD2F1 mice; assay type: functional; conditions: route intraperitoneal
[27] = tested on: Mus musculus; experiment: Body weight change of test animals to that of control was determined after injection at 5 mg/kg intraperitoneally in CD2F1 mice; assay type: functional; conditions: route intraperitoneal
[28] = tested on: Mus musculus; experiment: Toxicity day survivors was determined by the ratio of animals survived to that of test animals at 10 mg/kg intraperitoneally in CD2F1 mice; 6/6; assay type: organism-based; set-up: dose 10 mg/kg, route intraperitoneal; conditions: in vivo, ip
[29] = tested on: Mus musculus; experiment: Toxicity day survivors was determined by the ratio of animals survived to that of test animals at 2.5 mg/kg intraperitoneally in CD2F1 mice; 6/6; assay type: organism-based; set-up: dose 2.5 mg/kg, route intraperitoneal; conditions: in vivo, ip
[30] = tested on: Mus musculus; experiment: Toxicity day survivors was determined by the ratio of animals survived to that of test animals at 20 mg/kg intraperitoneally in CD2F1 mice; 6/6; assay type: organism-based; set-up: dose 20 mg/kg, route intraperitoneal; conditions: in vivo, ip
[31] = tested on: Mus musculus; experiment: Toxicity day survivors was determined by the ratio of animals survived to that of test animals at 40 mg/kg intraperitoneally in CD2F1 mice; 0/6; assay type: organism-based; set-up: dose 40 mg/kg, route intraperitoneal; conditions: in vivo, ip
[32] = tested on: Mus musculus; experiment: Toxicity day survivors was determined by the ratio of animals survived to that of test animals at 5 mg/kg intraperitoneally in CD2F1 mice; 6/6; assay type: organism-based; set-up: dose 5 mg/kg, route intraperitoneal; conditions: in vivo, ip
[33] = tested on: Mus musculus; experiment: Ratio of treated to that of untreated tumor-bearing control animals at 5 mg/kg intraperitoneally in CD2F1 mice was determined; assay type: functional; conditions: route intraperitoneal
[34] = tested on: Mus musculus; experiment: Ratio of treated to that of untreated tumor-bearing control animals at 10 mg/kg intraperitoneally in CD2F1 mice was determined; assay type: functional; conditions: route intraperitoneal
[35] = tested on: Mus musculus; experiment: Ratio of treated to that of untreated tumor-bearing control animals at 2.5 mg/kg intraperitoneally in CD2F1 mice was determined; assay type: functional; conditions: route intraperitoneal
[36] = tested on: Mus musculus; experiment: as §1; assay type: ADME, organism-based; set-up: dose 2.5 mg/kg, route intraperitoneal; conditions: in vivo, ip

## COc1ccc2c(c1)CCn1c(C)c(COC(=O)NC(C)C)c(COC(=O)NC(C)C)c1-2
[1]
  KE: -1.29
[2]
  KE: -1.29
[3]
  KE: -1.43
[4]
  T-C: -2.1 g
[5]
  KE: -1.51
[6]
  T-C: -5.3 g
[7]
  T-C: -5.6 g
[8]
  T-C: -1.1 g
[9]
  T-C: -6.6 g
[10]
  TDS: 3
[11]
  TDS: 6
[12]
  TDS: 6
[13]
  TDS: 6
[14]
  TDS: 6
[15]
  TDS: 6
[16]
  T/C: 136%
[17]
  T/C: 153%
[18]
  T/C: 153%
[19]
  T/C: 142%
[20]
  T-C: -3 g

## CNC(=O)OCc1c(COC(=O)NC)c2n(c1C)-c1ccccc1CCC2
[21]
  KE: 1
[22]
  KE: 1.19
[23]
  KE: 0.55
[24]
  T-C: -2.2 g
[25]
  T-C: -1.7 g
[26]
  T-C: -2.6 g
[27]
  T-C: -0.9 g
[28]
  TDS: 6
[29]
  TDS: 6
[30]
  TDS: 6
[31]
  TDS: 0
[32]
  TDS: 6
[33]
  T/C: 147%
[34]
  T/C: 152%
[35]
  T/C: 154%
[36]
  TDS: 6
